Results on 9 compounds are retold here after patent US20250249026A1 (priority 2019, published 2025).

“And” between values parts separate entries of the source, which are not always exact repeats. Identical values can stand only once. “Also recorded” adds a separate entry of the source.

For assay [1], the system named is Macrophage RAW264.7. Kind of assay: NO secretion of macrophage RAW264.7 (Embodiment 12). The format is cell-based, Mouse. As to conditions: for Lysate NO secretion amount / Supernatant NO secretion amount: Folate 15.625 μM, LPS group 1 μg/mL, mean, n = 6. The method, then:
• 1. Cell line: Macrophage RAW264.7. • 2. […] II. Experimental scheme
An absorbance value at 520 nm was expressed as mean±standard deviation. NO secretion rate=(OD sample well-OD blank well)/(OD normal well-OD blank well)×100%, and the NO secretion amount was calculated according to a standard curve.

The conditions of assay [2]: randomized controlled trial / meta analyses from the literature; cited from earlier work.
In assay [3] the test system is Mycoplasma pneumoniae (ATCCFH15531). Briefly: In vivo anti-mycoplasma pneumonia experiment (Embodiment 21). As to conditions: azithromycin 40 mg/kg; composition C 40 and 80 mg/kg; 10 days.
A further assay deals with iNOS. Kind of assay: Expression of iNOS in macrophages induced by LPS (Embodiment 8). The following applies: 10 μmol/L, LPS 0.1 μg/mL, 24 h, ELISA, FIG. 6. The format is cell-based, Mouse. The method, then: 1. Cell line: Macrophage RAW264.7.
2. Reagents: LPS (Sigma); iNOS detection kit (Stressgen); MTT (Biotopped).
The level of iNOS protein in macrophages was determined by ELISA using an anti-human iNOS polyclonal antibody (Stressgen). The number of macrophages was determined by using an automatic flow cytometer.
On the technique in general: An ELISA detects its analyte on a solid surface through an enzyme-linked reagent.

The nature of assay [4]: Removing peroxynitrite, SIN-1 as donor (Embodiment 9). As to conditions: SIN-1 1 μmol/L, 1, 10, 100 μmol/L, 302 nm, FIG. 7. The format is biochemical. How it is done:
3-morpholino-sydnonimine (SIN-1) as a peroxynitrite donor was added to 15 test tubes at a concentration of 1 μmol/L. 5-methyltetrahydrofolate calcium was added to test tubes containing the SIN-1 solution to the final concentrations of 1 μmol/L, 10 μmol/L, and 100 μmol/L respectively; dehydroascorbic acid was added to test tubes containing the SIN-1 solution to the final concentrations of 1 μmol/L, 10 μmol/L, and 100 μmol/L respectively; glutathione was added to test tubes containing the SIN-1 solution to the final concentrations of 1 μmol/L, 10 μmol/L, and 100 μmol/L respectively; NMN was added to test tubes containing the SIN-1 solution to the final concentrations of 1 μmol/L, 10 μmol/L, and 100 μmol/L respectively; and tetrahydrobiopterin was added to test tubes containing the SIN-1 solution to the final concentrations of 1 μmol/L, 10 μmol/L, and 100 μmol/L respectively. The concentration of peroxynitrite was determined by spectrophotometry at a detection wavelength of 302 nm.

The next assay has as its system influenza. The format is in vivo, human.
The subject of assay [5] is Macrophage RAW264.7. As to conditions: 15.625, 62.5, 250 μmol/L; FIGS. 10-12.
The next assay relates to Pseudomonas aeruginosa. Kind of assay: Gram-negative bacteria in vivo (Embodiment 18). The arrangement: species or system BAL B/C male mice. The following applies: penicillin 450 mg/kg by gavage 30 min and 24 h after infection. The method, then:
[…] BAL B/C male mice weighing 18-22 g were divided into 6 groups with 8 mice in each group. […] After a bacterial solution of Pseudomonas aeruginosa was cultured by streaking on an LB solid medium, a typical colony was picked and inoculated into an ordinary LB liquid medium. After overnight shaking culture at 37° C. for about 12 h, the culture was centrifuged at 4000 r/min for 3 min, the supernatant was discarded, and the bacteria were resuspended in normal saline for later use. The BAL B/C male mice in each experimental group and three control groups were intraperitoneally injected with a fatal dose of Pseudomonas aeruginosa solution at a dose of 500 μL/mouse. 30 min after the BAL B/C male mice in the experimental groups were infected with the bacteria, the medium-dose composition group and the high-dose composition group were administered with drugs by gavage, the penicillin group and the meropenem group were also administered with drugs by gavage, and the normal group was administered with purified water by gavage. 24 h after administration, the BAL B/C male mice in each experimental group and control group were administered for the second time, and the drug type and dosage were the same as the administration for the first time. The BAL B/C male mice were observed every 24 h after administration, and their survival was recorded. All animals were sacrificed on the day 15.

Where [6] appears, read: listed as 5-methyltetrahydrofolic acid.
[7] abbreviates: Folate capsules 400 mg/capsule, per patient, row Mean = mean.

“lipopolysaccharide [LPS, reference compound]”: the “Lysate NO secretion amount” value came to 1.6 µM in the assay with Macrophage RAW264.7 [1] (1 μg/mL LPS induction) and 1.95 µM in the assay with Macrophage RAW264.7 [1] (No induction). For the same compound, the “Supernatant NO secretion amount” value in the assay with Macrophage RAW264.7 [1] (1 μg/mL LPS induction) came out at 37.343 µM; in the assay with Macrophage RAW264.7 [1] (No induction) it was 42.714 µM.
Regarding `C[C@]12CCC(=O)C=C1CC[C@@H]1[C@@H]2[C@@H](O)C[C@@]2(C)[C@H]1CC[C@]2(O)C(=O)CO` [hydrocortisone], the “mortality of patients with sepsis” value in assay [2] is listed as “could not reduce”.
As to `CC[C@H]1OC(=O)[C@H](C)[C@@H](O[C@H]2C[C@@](C)(OC)[C@@H](O)[C@H](C)O2)[C@H](C)[C@@H](O[C@@H]2O[C@H](C)C[C@H](N(C)C)[C@H]2O)[C@](C)(O)C[C@@H](C)CN(C)[C@H](C)[C@@H](O)[C@]1(C)O` [azithromycin], in assay [3], the “histopathological examination of the lung tissue” value is on record as “Mild interstitial pneumonia”.
As for 6S-5-methyltetrahydrofolate calcium, the “effect on expression of iNOS in macrophages induced by LPS” value (“effect on expression of iNOS” for short) with iNOS (setting [6]) is recorded as “did not affect; also recorded: almost no effect”. Further, the peroxynitrite scavenging entry in assay [4] (setting [6]) was “excellent peroxynitrite scavenging effects; also recorded: higher ability to scavenge peroxynitrite”. Besides, in the assay with influenza (setting [7]), the “Basic rehabilitation (symptoms other than tonsillitis and sore throat disappeared)” value was 33 hours (2×) and 35 hours and 13 hours and 12 hours (2×) and 17 hours (2×) and 32 hours (3×) and 8 hours and 43 hours and 18 hours and 34 hours and 15 hours and 11 hours and 56 hours and 24 hours and 10 hours and 46 hours and 58 hours and 53 hours and 14 hours; the “Complete rehabilitation (all symptoms disappeared)” value was 33 hours (2×) and 35 hours and 13 hours (3×) and 12 hours and 17 hours (2×) and 32 hours (2×) and 8 hours and 43 hours and 36 hours (2×) and 48 hours and 56 hours and 46 hours (3×) and 44 hours and 58 hours (2×) and 14 hours; the “disappearance time of symptoms: Cough” value is 33 hours (2×) and 17 hours and 29 hours and 46 hours (2×) and 44 hours and 13 hours and 58 hours; the “disappearance time of symptoms: Dizziness and fullness in head” value is 48 h and 9 h. Moreover, in the assay on influenza (setting [7]), the “disappearance time of symptoms: Dry and itchy throat” value was found to be 15 h; the “disappearance time of symptoms: Fatigue” value was 35 hours and 8 hours (3×) and 12 hours (3×) and 15 hours and 10 hours (4×) and 33 hours; the “disappearance time of symptoms: Headache” value was 13 hours and 12 hours (4×) and 32 hours (2×) and 8 hours (3×) and 9 hours and 10 hours (2×) and 14 hours; the “disappearance time of symptoms: Inappetence” value stood at 13 h. For the same compound, in the assay with influenza (setting [7]), the “disappearance time of symptoms: Intolerance of cold and cold limbs” value was 10 h; the “disappearance time of symptoms: Low fever” value was 10 h; the “disappearance time of symptoms: Muscular soreness” value was 16 hours and 13 hours and 32 hours and 9 hours and 15 hours and 10 hours (2×) and 14 hours; the “disappearance time of symptoms: Nasal stuffiness” value is 9 hours and 17 hours and 32 hours (2×) and 8 hours and 43 hours and 12 hours (3×) and 20 hours and 15 hours (2×) and 56 hours and 33 hours and 24 hours and 10 hours and 41 hours. In addition, in the assay on influenza (setting [7]), the “disappearance time of symptoms: Running nose” value was 11 hours (2×) and 13 hours and 32 hours and 8 hours and 9 hours and 20 hours and 15 hours and 12 hours (3×) and 33 hours (2×) and 46 hours and 53 hours and 17 hours and 14 hours; the “disappearance time of symptoms: Sneezing” value is 32 hours (2×) and 9 hours (2×) and 18 hours and 34 hours and 15 hours and 12 hours (3×) and 8 hours and 33 hours and 10 hours and 17 hours; the “disappearance time of symptoms: Sore throat” value was 33 hours (2×) and 12 hours (2×) and 32 hours (3×) and 29 hours and 36 hours (2×) and 46 hours and 10 hours and 54 hours and 58 hours and 14 hours. Moreover, in the assay on influenza (data in both Table 1 and Table 2), the “time until the patients' influenza almost all healed” value is reported as no more than 2 days. For the same compound, in the assay on Macrophage RAW264.7 [1] (1 μg/mL LPS induction), the “Lysate NO secretion amount” value is 1.725 µM and the “Supernatant NO secretion amount” value stood at 36.814 µM. Moreover, in the assay with Macrophage RAW264.7 [1] (15.625 μmol/L, macrophages induced by LPS, listed as 5-methyltetrahydrofolic acid), the “effect on secretion/expression of NO in macrophages” value is on record as “did not inhibit; also recorded: hardly affects”. In addition, in the assay with Macrophage RAW264.7 [1] (No induction), the “Lysate NO secretion amount” value was determined as 3.863 µM and the “Supernatant NO secretion amount” value came to 1.714 µM. Besides, the “effect on secretion of NO when no LPS stimulation is provided” value in the assay on Macrophage RAW264.7 [1] (low concentration, no LPS) is “promote the secretion of NO”. In the assay with Macrophage RAW264.7 [5], the “effect on expression of macrophages and inflammatory factors induced by LPS” value is recorded as “no significant effect”.
Turning to `O=C1O[C@H]([C@@H](O)CO)C(=O)C1=O` [dehydroascorbic acid], the “effect on expression of iNOS” value in the assay with iNOS was “almost no effect”. Besides, the peroxynitrite scavenging entry in assay [4] is given as “excellent peroxynitrite scavenging effects; also recorded: higher ability to scavenge peroxynitrite”.
Regarding `N[C@@H](CCC(=O)N[C@@H](CS)C(=O)NCC(=O)O)C(=O)O` [glutathione, reference compound], the “effect on expression of iNOS” value in the assay with iNOS was “did not affect; also recorded: almost no effect”.
In the case of `O=C1O[C@H]([C@@H](O)CO)C(O)=C1O` [vitamin C], in assay [2], the “mortality of patients with sepsis” value was “cannot improve”.
penicillin: in the assay on Pseudomonas aeruginosa, the “outcome of mice infected with the fatal dose of Pseudomonas aeruginosa” value is reported as “all the mice in the penicillin group died”.
In the case of `NC(=O)c1ccc[n+]([C@@H]2O[C@H](COP(=O)([O-])O)[C@@H](O)[C@H]2O)c1` [NMN, nicotinamide mononucleotide], the “effect on expression of iNOS” value with iNOS is on record as “did not affect; also recorded: almost no effect”. Further, the peroxynitrite scavenging entry in assay [4] is “excellent peroxynitrite scavenging effects; also recorded: higher ability to scavenge peroxynitrite”.
